Laboratory results from patent US20220160751A1, “METHODS OF TREATMENT OF DISEASES AND DISORDERS ASSOCIATED WITH INCREASED TET LEVEL, INCREASED H19 LEVEL, INCREASED LEVEL OF TGF SIGNALING, OR ANY COMBINATION THEREOF” (YALE UNIVERSITY, priority 2019, published 2022).
“Also recorded” adds a separate entry of the source.

Key:
[1] = tested on: LX-2 human hepatic stellate cells; test: qPCR and immunoblotting of gene expression in LX-2 cells; type: cell-based; settings: TGF-β1 5 ng/mL vs vehicle, 24 h
Procedure: LX-2 human hepatic stellate cells (Yale Liver Center) were maintained in DMEM (Gibco, 11965-092) supplemented with 10% heat-inactivated fetal bovine serum (Gibco, 26140-079) and 1% PS (penicillin and streptomycin) at 37° C. in 5% humidified CO2 tissue culture incubator. Generally, cells were plated and transfected in a 24-well plate scale. For transfection with siRNA, let-7, or iLet7, 10 pmol of siTET3 (or siCon), let-7 (or miCon), or iLet7 (iCon) were mixed with 25 μl of OPTI-MEM (Gibco, 31985-070) by gentle pipetting. In parallel, 1 μl of Lipofectamine 3000 (ThermoFisher Scientific, L3000015) was mixed with 25 μl of OPTI-MEM. Then, the contents from the two tubes were mixed by gentle pipetting. After incubation for 5 min at RT, the resulting 50 μl solution was used to resuspend cell pellet (5×10^4 cells). After incubation at RT for 10 min, 450 μl of growth medium was added and the cell suspension was transferred into one well of a 24-well plate. For transfection with TET3-expression plasmid pTET3 (pcDNA-Flag-Tet3, Addgene plasmid #60940, (30)) or control vector, 5×10^4 cells per well were seeded in a 24-well plate the night before transfection. The next day, 0.75 μg of pTET3 (or Vec) were mixed with 1 μl of P3000 in 25 μl of OPTI-MEM by gentle pipetting. In parallel, 0.5 μl of Lipofectamine 3000 were mixed with 25 μl of OPTI-MEM. The contents from the two tubes were combined by gentle pipetting and incubated for 5 min at RT. The resulting 50 μl of transfection solution was added to each well of cells seeded in a 24-well plate the night before and from which the growth medium had been removed. After 6 h of incubation in a tissue culture incubator, 500 μl of growth medium were added to each well of cells. For TGF-β1 (Sigma, USA) treatment experiments, transfected cells were incubated in 500 μl of serum-free DMEM containing 5 ng/mL TGF-β1 (diluted with HCl) or HCl (as control) for 24 h or 48 h as indicated.
(§1) Total RNA was extracted from cultured cells or liver tissue samples using PureLink RNA Mini Kit (Ambion, 12183018A). 0.8 μg of total RNA was reverse transcribed to cDNA in a reaction volume of 10 μl using PrimeScript RT Reagent Kit (TAKARA, RR037A). Quantitative real-time PCR reactions were carried out using iQSYBRGreen (Bio-Rad) in a Bio-Rad iCycler. Gene expression levels were normalized against housekeeping genes HPRT1 and RPLP0.
For liver tissue samples, 5-10 mg of tissues were homogenized by sonication (Qsonica, Model Q125) in 150 μl of 2×SDS-sample buffer. Samples were immediately heated at 100° C. for 3 min with occasional vertexing. Then, 100 μl of 2×SDS-sample buffer was added to each sample and the 250 μl of tissue lysate were further homogenized by sonication and heated again at 100° C. for 3-5 min with vertexing once every 15 sec. Samples (further diluted at 1:1 with 2×SDS-sample buffer before loading) were loaded 5-10 μl per well onto a 4-15% gradient SDS gel, followed by Western blot analysis. Image J was used to quantify the protein bands.

[2] = tested on: primary human HSCs; test: qPCR of key pathway genes in primary human HSCs; type: cell-based; settings: TGF-β1 2 ng/mL vs vehicle, 24 h
Procedure: as §1

In the case of “TGF-β1: TGF-β1 (Sigma) used to stimulate LX-2 cells and primary human HSCs”, the LIN28B expression [1] is reported as “stimulated expression of LIN28B”, the “SMAD3 phosphorylation (with expression of α-SMA, COL1A1, FN1 and TIMP1)” value [1] is reported as “concomitant increase in SMAD3 phosphorylation; also recorded: increased Smad3 phosphorylation” and the “TET3 expression (mRNA and protein)” value [1] is reported as “upregulated TET3; also recorded: increased expression of TET3”. For the same substance, the “expression of TGF-β1, TSP1, and TGFBR2” value [1] was “also increased”, the “let-7a and let-7b expression” value [1] was “decreased expression of let-7a and let-7b” and the “expression of TET2 and TET1” value [2] was “decreased expression of TET2 and TET1”. For the same substance, the “expression of TET3, TGFB1, TSP1, TGFBR2, FN1, and COL1A1” value [2] was “increased expression of TET3, TGFB1, TSP1, TGFBR2, FN1, and COL1A1”.
